What all share (test): inhibitors of GTP binding, eight-GTPase multiplex, SAR follow-up, biochemical, bead flow cytometry, Mg non-chelator buffer, round 2 (AID 588622)
Common to all, as to details: bead-based flow cytometry multiplex GTP binding; for % response (lower = inhibition): at 100 µM (top of the series)
(In general: A flow cytometer gives signals particle by particle.)

Assay [1] deals with Cdc42WT.
The target of assay [2] is RacACT.
Assay [3] addresses RhoWT.
For assay [4], the target named is RacWT.
Assay [5] deals with Rab7.

The record followed here is PubChem BioAssay AID588622 (NMMLSC, 2011).

Calls of active or inactive are those of the source. The rule behind the calls is not given here.

As a reminder, the EC50 is the concentration at which the effect is half-maximal.

As to `Cc1ccccc1C(=O)NC(=S)Nc1sc2c(c1C(=O)O)CC(C)(C)OC2`, the EC50 was 352 nM in assay [1]; 370 nM in assay [2]; 486 nM in assay [3]; 438 nM in assay [4]; 523 nM in assay [5].
Take `CC1(C)CCc2sc(NC(=S)NC(=O)c3ccccc3)c(C(=O)O)c2C1`: the EC50 in assay [1] is 62 nM; in assay [2] it was 48 nM; in assay [3], 62 nM; in assay [4] it was 48 nM; in assay [5], 69 nM.
As for `CC1(C)Cc2c(sc(NC(=S)Nc3ccccc3)c2C(=O)O)CO1`, the “% response (lower = inhibition)” value in assay [1], in assay [2], in assay [3] and in assay [4] was “inactive” in each case. In assay [5], the EC50 is 4990 nM.
Take `CC1(C)Cc2c(sc(NC(=S)NC(=O)c3cccc(Br)c3)c2C(=O)O)CO1`: the “% response (lower = inhibition)” value in assay [1], in assay [2], in assay [3], in assay [4] and in assay [5] was “inactive” in each case.
As for `CC1(C)Cc2c(sc(NC(=S)NC(=O)c3ccc(Br)cc3)c2C(=O)O)CO1`, the EC50 is 539 nM in assay [1]; 455 nM in assay [2]; 475 nM in assay [3]; 391 nM in assay [4]; 431 nM in assay [5].
For `Cc1ccc(C(=O)NC(=S)Nc2sc3c(c2C(=O)O)CC(C)(C)OC3)cc1` the same measures were 109 nM, 139 nM, 131 nM, 147 nM and 97 nM.
As to `COc1ccccc1C(=O)NC(=S)Nc1sc2c(c1C(=O)O)CC(C)(C)OC2`, the “% response (lower = inhibition)” value in assay [1], in assay [2], in assay [3], in assay [4] and in assay [5] was “inactive” each time.
For `COc1cccc(C(=O)NC(=S)Nc2sc3c(c2C(=O)O)CC(C)(C)OC3)c1`, the EC50 is 251 nM in assay [1], 292 nM in assay [3] and 323 nM in assay [5]. The “% response (lower = inhibition)” value in assay [2] and in assay [4] was “inactive” each time.
Regarding `CC1(C)Cc2c(sc(NC(=S)NC(=O)C3CCCCC3)c2C(=O)O)CO1`, the EC50 was 660 nM in assay [1]; 397 nM in assay [2]; 814 nM in assay [3]; 495 nM in assay [4]; 461 nM in assay [5].
Turning to `Cc1cccc(C(=O)NC(=S)Nc2sc3c(c2C(=O)O)CC(C)(C)OC3)c1`, the values for the EC50 in assay [1], in assay [3] and in assay [5] were 1680 nM, 1450 nM and 325 nM, respectively. The “% response (lower = inhibition)” value in assay [2] and in assay [4] was “inactive” in each case.
`COc1ccc(C(=O)NC(=S)Nc2sc3c(c2C(=O)O)CC(C)(C)OC3)cc1`: the EC50 in assay [1] was 203 nM; in assay [2] it was 243 nM; in assay [3] it was 213 nM; in assay [4] it was 197 nM; in assay [5], 214 nM.
For `CC1(C)Cc2c(sc(NC(=S)NC(=O)c3ccccc3F)c2C(=O)O)CO1` the same measures were 443 nM, 455 nM, 431 nM, 452 nM and 316 nM.
For `CC1(C)Cc2c(sc(NC(=S)NC(=O)c3ccc(F)cc3)c2C(=O)O)CO1` the same measures were 171 nM, 133 nM, 112 nM, 147 nM and 77 nM.
For `O=C(NC(=S)Nc1sc2c(c1C(=O)O)CC1(CCCC1)OC2)c1ccccc1` the same measures were 50 nM, 80 nM, 101 nM, 56 nM and 33 nM.
As to `CC1(C)Cc2c(sc(NC(=S)NC(=O)c3ccco3)c2C(=O)O)CO1`, the EC50 in assay [1] is 62 nM; in assay [2], 59 nM; in assay [3], 92 nM; in assay [4] it was 59 nM; in assay [5], 82 nM.
As to `CCC1(C)Cc2c(sc(NC(=S)NC(=O)c3ccccc3)c2C(=O)O)CO1` (stereo not given), the EC50 in assay [1] is 51 nM; in assay [2], 46 nM; in assay [3], 46 nM; in assay [4], 53 nM; in assay [5], 35 nM.
For the compound `CC1(C)Cc2c(sc(NC(=S)NC(=O)c3ccccc3Br)c2C(=O)O)CO1`, the EC50 in assay [1] is 1560 nM; in assay [2], 1180 nM; in assay [3], 1330 nM; in assay [5] it was 1250 nM. The “% response (lower = inhibition)” value in assay [4] is “inactive”.
As for `CC(C)(C)C1Cc2c(sc(NC(=S)NC(=O)c3ccccc3)c2C(=O)O)CO1` (stereo not given), the EC50 was 164 nM in assay [1]; 146 nM in assay [2]; 197 nM in assay [3]; 139 nM in assay [4]; 218 nM in assay [5].
For `CC1(C)Cc2c(sc(NC(=S)NC(=O)c3cccs3)c2C(=O)O)CO1` the same measures were 30 nM, 27 nM, 33 nM, 29 nM and 25 nM.
For `CC1(C)Cc2c(sc(NC(=S)NC(=O)c3cccc(F)c3)c2C(=O)O)CO1`, the EC50 in assay [1] is 689 nM; in assay [3], 599 nM; in assay [4], 491 nM; in assay [5], 423 nM. Further, the “% response (lower = inhibition)” value in assay [2] is “inactive”.
